According to publication PMC7367873, “Dissecting the sequence determinants for dephosphorylation by the catalytic subunits of phosphatases PP1 and PP2A” (Nature Communications, 2020):
Blank lines part the entries; values can stand above or below the substance they belong to.

Legend:
GFP-14-3-3β = GFP-14-3-3β co-IP with LC-MS/MS, untreated GFP-14-3-3β versus GFP control (14-3-3 interactome); format: binding, human
Procedure: (§1) HeLa Kyoto cells expressing transiently transfected pEGFP(C1)-14-3-3β or pEGFP(C1) control plasmid, were incubated with 20 nM Calyculin A (# 9902 S, Cell Signaling Technology) for 12 min. Cells were washed twice on ice with cold PBS and after addition of 500 µL lysis buffer (100 mM NaCl, 10 mM Tris, 0.1% IGEPAL, 1 mM EDTA, 1 mM EGTA, 20 nM Calyculin A, 1x cOmplete Mini protease inhibitor cocktail (Sigma), 1 mM DTT, 1 mM MnCl2) cells were scraped from plates, lysed by 10 pushes through an injection needle (21 G, BD) and the insoluble fraction was pelleted by centrifugation (10 min, 10^4 rcf, 4 °C). Supernatants were then subjected to incubation with 1 µM recombinant phosphatase or buffer for 1 h at 30 °C. Next, we subjected samples to immunoprecipitation using α-GFP nanobodies covalently coupled to agarose beads (2 h, 4 °C, obtained from the EMBL PEPcore Core Facility). Beads were then washed three times with lysis buffer and samples were eluted in 1x LDS sample buffer (Thermo Fisher Scientific) by heating to 70 °C for 10 min.
(§2) The samples were then reduced with 25 mM dithiothreitol (10 min at 70 °C) and alkylated with 55 mM chloroacetamide (room temperature, 30 min, in the dark). Proteins were run on a precast 4–12% NuPAGE gel (ThermoFisher Scientific) for about 1 cm to concentrate the sample prior to in-gel tryptic digestion, which was performed according to the standard procedures. The peptides obtained were dried to completeness and resuspended in 12 µL of buffer A (0.1% FA), and 5 µL of sample were injected per MS measurement. The experiment was carried out in three independent replicates.
(§3) The samples were analyzed by LC-MS/MS on a Dionex Ultimate 3000 nano-HPLC coupled online to a Fusion Lumos Tribrid mass spectrometer (Thermo Fisher Scientific). Peptides were delivered to a trap column (75 µm × 2 cm, packed in-house with 5 µm C18 resin; Reprosil PUR AQ, Dr. Maisch) and washed using 0.1% FA at a flow rate of 5 µL/min for 10 min. Subsequently, peptides were transferred to an analytical column (75 µm × 45 cm, packed in-house with 3 µm C18 resin; Reprosil Gold) applying a flow rate of 300 nL/min and separated using a 60 min linear gradient from 4% to 32% LC solvent B (0.1% FA, 5% DMSO in ACN) in LC solvent A (0.1% FA in 5% DMSO). The eluate from the analytical column was sprayed via a stainless steel emitter (Thermo Fisher Scientific) at a source voltage of 2.1 kV into the mass spectrometer. The transfer capillary was heated to 275 °C. The Fusion Lumos was operated in positive ionization mode and data-dependent acquisition (DDA), automatically switching between MS1 and MS2 spectrum acquisition. Full scan MS1 spectra were recorded in the Orbitrap from 360 to 1300 m/z at a resolution of 60k (automatic gain control (AGC) target value of 4e5 charges, maximum injection time (maxIT) of 50 ms). Up to 20 peptide precursors were isolated (isolation window, 1.7 m/z; maximum injection time, 25 ms; and AGC value, 1e5), fragmented by high-energy collision-induced dissociation (HCD) using 30% normalized collision energy (NCE), and analyzed at a resolution of 15k in the Orbitrap. Precursor ions that were singly charged, unassigned, or with charge states >6+ were excluded. The dynamic exclusion duration of fragmented precursor ions was 20 s.
(§4) Peptide and protein identification and LFQ were performed using MaxQuant software (version 1.6.1.0)[64] by searching the data against all canonical protein sequences as annotated in the Swissprot reference database (human proteins only, 20193 entries, downloaded 22 March 2016, internally annotated with PFAM domains) using the embedded search engine Andromeda[65]. The MaxQuant search was performed using two variable modifications; oxidation of methionine and N-terminal protein acetylation. Carbamidomethylation on cysteines was specified as a fixed modification. Trypsin (Trypsin/P) was specified as the proteolytic enzyme with up to two allowed missed cleavage sites.

[1] = tested on: GFP-14-3-3β and its binding proteins; test: GFP-14-3-3β co-IP with LC-MS/MS label-free quantification, untreated versus PP1c-treated; design: species or system human
Procedure: as §1, §2, §3, §4

[2] = pairwise comparison untreated GFP-14-3-3β vs GFP, student's t-test, 3 replicates each, LC-MS/MS label-free quantification
[3] = pairwise comparison PP1 vs untreated, student's t-test, 3 replicates each, LC-MS/MS label-free quantification
[4] = pairwise comparison untreated vs GFP
[5] = pairwise comparison PP1 vs untreated
[6] = untreated vs GFP, LFQ intensities, 3 replicates each
[7] = PP1 vs untreated, LFQ intensities, 3 replicates each
[8] = untreated vs GFP, LFQ intensities, replicates 1-3
[9] = PP1 vs untreated, LFQ intensities, replicates 1-3
[10] = log2 difference, pairwise comparison untreated vs GFP, label-free quantification, 3 replicates each
[11] = log2 difference, pairwise comparison PP1 vs untreated, label-free quantification, 3 replicates each
[12] = untreated vs GFP, label-free quantification
[13] = PP1 vs untreated, label-free quantification
[14] = GFP-14-3-3β co-IP LC-MS/MS, untreated vs GFP, student's t-test, label-free quantification, 3 replicates each
[15] = GFP-14-3-3β co-IP LC-MS/MS, PP1 vs untreated, student's t-test, label-free quantification, 3 replicates each

Difference (log2), PP1 vs untreated [1, 3]: -4.747 log2
Substance: FRYL
Difference (log2), untreated vs GFP (GFP-14-3-3β; [2]): 5.1751 log2

Difference (log2), PP1 vs untreated [1, 3]: -2.154 log2
Substance: SRSF3
Difference (log2), untreated vs GFP (GFP-14-3-3β; [2]): 2.78 log2

Difference (log2), PP1 vs untreated [1, 7]: 0.6266 log2
Substance: VDAC1
Difference (log2), untreated vs GFP (GFP-14-3-3β; [6]): 1.0866 log2

Difference (log2), PP1 vs untreated [1, 9]: -1.2523 log2
Substance: YWHAG
Difference (log2), untreated vs GFP (GFP-14-3-3β; [8]): 8.569 log2

Difference (log2), PP1 vs untreated [1, 3]: -3.139 log2
Substance: RACGAP1
Difference (log2), untreated vs GFP (GFP-14-3-3β; [2]): 6.129 log2

Difference (log2), PP1 vs untreated [1, 9]: -1.628 log2
Substance: BCLAF1
Difference (log2), untreated vs GFP (GFP-14-3-3β; [8]): 1.7962 log2

Difference (log2), PP1 vs untreated [1, 7]: 0.4174 log2
Substance: USP10
Difference (log2), untreated vs GFP (GFP-14-3-3β; [6]): 1.017 log2

Difference (log2), PP1 vs untreated [1, 5]: 0.1166 log2
Substance: MKI67
Difference (log2), untreated vs GFP (GFP-14-3-3β; [4]): 1.0535 log2

Difference (log2), PP1 vs untreated [1, 13]: 1.222 log2
Substance: PHB2
Difference (log2), untreated vs GFP (GFP-14-3-3β; [12]): 1.117 log2

Difference (log2), PP1 vs untreated [1, 3]: -2.858 log2
Substance: KIAA0930
Difference (log2), untreated vs GFP (GFP-14-3-3β; [2]): 3.752 log2

Difference (log2), PP1 vs untreated [1, 9]: -0.7937 log2
Substance: HSPA1B;HSPA1A
Difference (log2), untreated vs GFP (GFP-14-3-3β; [8]): 0.2148 log2

Second part, the substance before the results:

Substance: MSH6
Difference (log2), untreated vs GFP (GFP-14-3-3β; [4]): 1.062 log2 | Difference (log2), PP1 vs untreated [1, 5]: 0.0512 log2

Substance: TJP1
Difference (log2), untreated vs GFP (GFP-14-3-3β; [4]): 1.92 log2 | Difference (log2), PP1 vs untreated [1, 5]: -0.07001 log2

Substance: RANBP2
Difference (log2), untreated vs GFP (GFP-14-3-3β; [8]): 2.443 log2 | Difference (log2), PP1 vs untreated [1, 9]: -2.029 log2

Substance: ABCF1
Difference (log2), untreated vs GFP (GFP-14-3-3β; [6]): 1.553 log2 | Difference (log2), PP1 vs untreated [1, 7]: 0.4338 log2

Substance: SRGAP1
Difference (log2), untreated vs GFP (GFP-14-3-3β; [2]): 5.319 log2 | Difference (log2), PP1 vs untreated [1, 3]: -5.178 log2

Substance: MAT2A
Difference (log2), untreated vs GFP (GFP-14-3-3β; [2]): 0.8108 log2 | Difference (log2), PP1 vs untreated [1, 3]: -2.199 log2

Substance: SRGAP2
Difference (log2), untreated vs GFP (GFP-14-3-3β; [2]): 5.241 log2 | Difference (log2), PP1 vs untreated [1, 3]: -5.683 log2

Substance: RFC3
Difference (log2), untreated vs GFP (GFP-14-3-3β; [10]): -0.5439 | Difference (log2), PP1 vs untreated [1, 11]: 1.3203

Substance: ARAF
Difference (log2), untreated vs GFP (GFP-14-3-3β; [2]): 3.851 log2 | Difference (log2), PP1 vs untreated [1, 3]: -3.95 log2

Substance: IMPDH2
Difference (log2), untreated vs GFP (GFP-14-3-3β; [12]): -1.172 log2 | Difference (log2), PP1 vs untreated [1, 13]: 1.157 log2

Substance: TOP2A
Difference (log2), untreated vs GFP (GFP-14-3-3β; [14]): 3 log2 | Difference (log2), PP1 vs untreated [1, 15]: -0.6623 log2

Substance: CCT3
Difference (log2), untreated vs GFP (GFP-14-3-3β; [12]): 0.2505 log2 | Difference (log2), PP1 vs untreated [1, 13]: 0.8223 log2

Substance: PKM
Difference (log2), untreated vs GFP (GFP-14-3-3β; [8]): 0.471 log2 | Difference (log2), PP1 vs untreated [1, 9]: -1.659 log2

Substance: HNRNPU
Difference (log2), untreated vs GFP (GFP-14-3-3β; [14]): 0.9402 log2 | Difference (log2), PP1 vs untreated [1, 15]: -0.3998 log2

Substance: NUMA1
Difference (log2), untreated vs GFP (GFP-14-3-3β; [8]): 2.2393 log2 | Difference (log2), PP1 vs untreated [1, 9]: -0.7467 log2

Substance: APC
Difference (log2), untreated vs GFP (GFP-14-3-3β; [4]): 0.7989 log2 | Difference (log2), PP1 vs untreated [1, 5]: 0.0453 log2

Substance: TAF15
Difference (log2), untreated vs GFP (GFP-14-3-3β; [8]): 0.6755 log2 | Difference (log2), PP1 vs untreated [1, 9]: -1.048 log2

Substance: H2AFY
Difference (log2), untreated vs GFP (GFP-14-3-3β; [8]): 1.914 log2 | Difference (log2), PP1 vs untreated [1, 9]: -1.711 log2

Substance: SOGA1
Difference (log2), untreated vs GFP (GFP-14-3-3β; [12]): -0.02242 log2 | Difference (log2), PP1 vs untreated [1, 13]: 0.818 log2

Substance: MYO5C
Difference (log2), untreated vs GFP (GFP-14-3-3β; [12]): -0.7461 log2 | Difference (log2), PP1 vs untreated [1, 13]: 0.9874 log2

Substance: NPM1
Difference (log2), untreated vs GFP (GFP-14-3-3β; [4]): 0.2613 log2 | Difference (log2), PP1 vs untreated [1, 5]: 0.1234 log2

Substance: DOCK7
Difference (log2), untreated vs GFP (GFP-14-3-3β; [2]): 5.106 log2 | Difference (log2), PP1 vs untreated [1, 3]: -5.0278 log2

Substance: PCM1
Difference (log2), untreated vs GFP (GFP-14-3-3β; [10]): -0.166 | Difference (log2), PP1 vs untreated [1, 11]: 2.301
